Assay results from ChEMBL document CHEMBL4004803, “Syntheses and antibacterial activity of soluble 9-bromo substituted indolizinoquinoline-5,12-dione derivatives” (Eur J Med Chem, 2017).
Converted amounts (≈) assume the structure as drawn.

Tests used:
Assay type in all cases: functional
Staphylococcus aureus [1] = assay: Antibacterial activity against methicillin-resistant Staphylococcus aureus 10281-2 clinical isolate after 20 to 24 hrs by two-fold microdilution method
Staphylococcus aureus [2] = assay: Antibacterial activity against methicillin-resistant Staphylococcus aureus 1216052 clinical isolate after 20 to 24 hrs by two-fold microdilution method
Staphylococcus aureus [3] = assay: Antibacterial activity against methicillin-resistant Staphylococcus aureus 20106-2 clinical isolate after 20 to 24 hrs by two-fold microdilution method
Staphylococcus aureus [4] = assay: Antibacterial activity against methicillin-resistant Staphylococcus aureus 110834 clinical isolate after 20 to 24 hrs by two-fold microdilution method
Staphylococcus aureus [5] = assay: Antibacterial activity against methicillin-resistant Staphylococcus aureus 131215 clinical isolate after 20 to 24 hrs by two-fold microdilution method
Staphylococcus aureus [6] = assay: Antibacterial activity against methicillin-resistant Staphylococcus aureus 831024 clinical isolate after 20 to 24 hrs by two-fold microdilution method
Staphylococcus aureus [7] = assay: Antibacterial activity against methicillin-resistant Staphylococcus aureus 121969 clinical isolate after 20 to 24 hrs by two-fold microdilution method
Staphylococcus aureus [8] = assay: Antibacterial activity against methicillin-resistant Staphylococcus aureus 1024004-2 clinical isolate after 20 to 24 hrs by two-fold microdilution method
Staphylococcus aureus [9] = assay: Antibacterial activity against methicillin-resistant Staphylococcus aureus 110432 clinical isolate after 20 to 24 hrs by two-fold microdilution method
Staphylococcus aureus [10] = assay: Antibacterial activity against methicillin-resistant Staphylococcus aureus 20339 clinical isolate after 20 to 24 hrs by two-fold microdilution method
Staphylococcus aureus [11] = assay: Antibacterial activity against methicillin-resistant Staphylococcus aureus 112106 clinical isolate after 20 to 24 hrs by two-fold microdilution method
Staphylococcus aureus [12] = assay: Antibacterial activity against methicillin-resistant Staphylococcus aureus 822030 clinical isolate after 20 to 24 hrs by two-fold microdilution method
Staphylococcus aureus [13] = assay: Antibacterial activity against methicillin-resistant Staphylococcus aureus 202045 clinical isolate after 20 to 24 hrs by two-fold microdilution method
Staphylococcus aureus [14] = assay: Antibacterial activity against methicillin-resistant Staphylococcus aureus 10844 clinical isolate after 20 to 24 hrs by two-fold microdilution method
Staphylococcus aureus [15] = assay: Antibacterial activity against methicillin-resistant Staphylococcus aureus 921026 clinical isolate after 20 to 24 hrs by two-fold microdilution method
Staphylococcus aureus [16] = assay: Antibacterial activity against methicillin-resistant Staphylococcus aureus 1113041 clinical isolate after 20 to 24 hrs by two-fold microdilution method
Streptococcus pyogenes = assay: Antibacterial activity against Streptococcus pyogenes ATCC 19615 after 20 to 24 hrs by two-fold microdilution method
Staphylococcus aureus [17] = assay: Antibacterial activity against methicillin-resistant Staphylococcus aureus 614019 clinical isolate after 20 to 24 hrs by two-fold microdilution method
Staphylococcus aureus [18] = assay: Antibacterial activity against methicillin-resistant Staphylococcus aureus 531220 clinical isolate after 20 to 24 hrs by two-fold microdilution method
Staphylococcus aureus [19] = assay: Antibacterial activity against methicillin-resistant Staphylococcus aureus GLH14 clinical isolate after 20 to 24 hrs by two-fold microdilution method
Staphylococcus aureus [20] = assay: Antibacterial activity against methicillin-resistant Staphylococcus aureus 118038 clinical isolate after 20 to 24 hrs by two-fold microdilution method
Staphylococcus aureus [21] = assay: Antibacterial activity against methicillin-resistant Staphylococcus aureus 110328-1 clinical isolate after 20 to 24 hrs by two-fold microdilution method
Staphylococcus aureus [22] = assay: Antibacterial activity against methicillin-resistant Staphylococcus aureus GLH15 clinical isolate after 20 to 24 hrs by two-fold microdilution method
Staphylococcus aureus [23] = assay: Antibacterial activity against methicillin-resistant Staphylococcus aureus 122820-2 clinical isolate after 20 to 24 hrs by two-fold microdilution method
Staphylococcus aureus [24] = assay: Antibacterial activity against methicillin-resistant Staphylococcus aureus 122710-2 clinical isolate after 20 to 24 hrs by two-fold microdilution method
Staphylococcus aureus [25] = assay: Antibacterial activity against methicillin-resistant Staphylococcus aureus 1026021 clinical isolate after 20 to 24 hrs by two-fold microdilution method
Staphylococcus aureus [26] = assay: Antibacterial activity against methicillin-resistant Staphylococcus aureus 304243 clinical isolate after 20 to 24 hrs by two-fold microdilution method
Staphylococcus aureus [27] = assay: Antibacterial activity against methicillin-resistant Staphylococcus aureus 102849 clinical isolate after 20 to 24 hrs by two-fold microdilution method
Staphylococcus aureus [28] = assay: Antibacterial activity against methicillin-resistant Staphylococcus aureus 414244 clinical isolate after 20 to 24 hrs by two-fold microdilution method
Staphylococcus aureus [29] = assay: Antibacterial activity against methicillin-resistant Staphylococcus aureus 120827 clinical isolate after 20 to 24 hrs by two-fold microdilution method
Staphylococcus aureus [30] = assay: Antibacterial activity against […] Staphylococcus aureus ATCC 25923 after 20 to 24 hrs by two-fold microdilution method
Staphylococcus aureus [31] = assay: Antibacterial activity against methicillin-resistant Staphylococcus aureus 221014 clinical isolate after 20 to 24 hrs by two-fold microdilution method
Staphylococcus aureus [32] = assay: Antibacterial activity against methicillin-resistant Staphylococcus aureus 908046 clinical isolate after 20 to 24 hrs by two-fold microdilution method
Staphylococcus aureus [33] = assay: Antibacterial activity against methicillin-resistant Staphylococcus aureus 111423 clinical isolate after 20 to 24 hrs by two-fold microdilution method
Staphylococcus aureus [34] = assay: Antibacterial activity against methicillin-resistant Staphylococcus aureus 1029025 clinical isolate after 20 to 24 hrs by two-fold microdilution method
Staphylococcus aureus [35] = assay: Antibacterial activity against methicillin-resistant Staphylococcus aureus 1107027 clinical isolate after 20 to 24 hrs by two-fold microdilution method
Staphylococcus aureus [36] = assay: Antibacterial activity against methicillin-resistant Staphylococcus aureus 123152 clinical isolate after 20 to 24 hrs by two-fold microdilution method
Staphylococcus aureus [37] = assay: Antibacterial activity against methicillin-resistant Staphylococcus aureus 1108204 clinical isolate after 20 to 24 hrs by two-fold microdilution method
Staphylococcus aureus [38] = assay: Antibacterial activity against methicillin-resistant Staphylococcus aureus 1012029 clinical isolate after 20 to 24 hrs by two-fold microdilution method
Staphylococcus aureus [39] = assay: Antibacterial activity against methicillin-resistant Staphylococcus aureus 121026 clinical isolate after 20 to 24 hrs by two-fold microdilution method
Staphylococcus aureus [40] = assay: Antibacterial activity against methicillin-resistant Staphylococcus aureus 1023043 clinical isolate after 20 to 24 hrs by two-fold microdilution method
Staphylococcus aureus [41] = assay: Antibacterial activity against methicillin-resistant Staphylococcus aureus 503025 clinical isolate after 20 to 24 hrs by two-fold microdilution method
Staphylococcus aureus [42] = assay: Antibacterial activity against methicillin-resistant Staphylococcus aureus clinical isolate after 20 to 24 hrs by two-fold microdilution method
Staphylococcus aureus [43] = assay: Antibacterial activity against methicillin-resistant Staphylococcus aureus 829034 clinical isolate after 20 to 24 hrs by two-fold microdilution method
Staphylococcus aureus [44] = assay: Antibacterial activity against methicillin-resistant Staphylococcus aureus 111625 clinical isolate after 20 to 24 hrs by two-fold microdilution method
Staphylococcus aureus [45] = assay: Antibacterial activity against methicillin-resistant Staphylococcus aureus 109016 clinical isolate after 20 to 24 hrs by two-fold microdilution method
Staphylococcus aureus [46] = assay: Antibacterial activity against methicillin-resistant Staphylococcus aureus 221022 clinical isolate after 20 to 24 hrs by two-fold microdilution method

## O=C1c2cccnc2C(=O)c2c1c(C(=O)OCCCCCCN1CCCCC1)c1ccc(Br)cn21
Staphylococcus aureus [1]
  MIC: 0.063 µg/mL (≈ 0.117 µM)
Staphylococcus aureus [2]
  MIC: > 16 µg/mL
Staphylococcus aureus [3]
  MIC: 0.063 µg/mL (≈ 0.117 µM)
Staphylococcus aureus [4]
  MIC: 0.063 µg/mL (≈ 0.117 µM)
Staphylococcus aureus [5]
  MIC: 0.031 µg/mL (≈ 0.0576 µM)
Staphylococcus aureus [6]
  MIC: 0.063 µg/mL (≈ 0.117 µM)
Staphylococcus aureus [7]
  MIC: 0.063 µg/mL (≈ 0.117 µM)
Staphylococcus aureus [8]
  MIC: 0.063 µg/mL (≈ 0.117 µM)
Staphylococcus aureus [9]
  MIC: 0.063 µg/mL (≈ 0.117 µM)
Staphylococcus aureus [10]
  MIC: 0.125 µg/mL (≈ 0.232 µM)
Staphylococcus aureus [11]
  MIC: 0.063 µg/mL (≈ 0.117 µM)
Staphylococcus aureus [12]
  MIC: 0.125 µg/mL (≈ 0.232 µM)
Staphylococcus aureus [13]
  MIC: ≤ 0.0078 µg/mL
Staphylococcus aureus [14]
  MIC: 0.063 µg/mL (≈ 0.117 µM)
Staphylococcus aureus [15]
  MIC: 0.063 µg/mL (≈ 0.117 µM)
Staphylococcus aureus [16]
  MIC: 0.031 µg/mL (≈ 0.0576 µM)
Streptococcus pyogenes
  MIC: 2 µg/mL (≈ 3.71 µM)
Staphylococcus aureus [17]
  MIC: 0.063 µg/mL (≈ 0.117 µM)
Staphylococcus aureus [18]
  MIC: 0.25 µg/mL (≈ 0.464 µM)
Staphylococcus aureus [19]
  MIC: 0.063 µg/mL (≈ 0.117 µM)
Staphylococcus aureus [20]
  MIC: 0.063 µg/mL (≈ 0.117 µM)
Staphylococcus aureus [21]
  MIC: 0.125 µg/mL (≈ 0.232 µM)
Staphylococcus aureus [22]
  MIC: 0.063 µg/mL (≈ 0.117 µM)
Staphylococcus aureus [23]
  MIC: 0.063 µg/mL (≈ 0.117 µM)
Staphylococcus aureus [24]
  MIC: 0.031 µg/mL (≈ 0.0576 µM)
Staphylococcus aureus [25]
  MIC: 16 µg/mL (≈ 29.7 µM)
Staphylococcus aureus [26]
  MIC: 0.016 µg/mL (≈ 0.0297 µM)
Staphylococcus aureus [27]
  MIC: 0.063 µg/mL (≈ 0.117 µM)
Staphylococcus aureus [28]
  MIC: 0.063 µg/mL (≈ 0.117 µM)
Staphylococcus aureus [29]
  MIC: 0.031 µg/mL (≈ 0.0576 µM)
Staphylococcus aureus [30]
  MIC: 0.031 µg/mL (≈ 0.0576 µM)
Staphylococcus aureus [31]
  MIC: 0.125 µg/mL (≈ 0.232 µM)
Staphylococcus aureus [32]
  MIC: 0.031 µg/mL (≈ 0.0576 µM)
Staphylococcus aureus [33]
  MIC: > 16 µg/mL
Staphylococcus aureus [34]
  MIC: 0.063 µg/mL (≈ 0.117 µM)
Staphylococcus aureus [35]
  MIC: 0.063 µg/mL (≈ 0.117 µM)
Staphylococcus aureus [36]
  MIC: 0.125 µg/mL (≈ 0.232 µM)
Staphylococcus aureus [37]
  MIC: 0.063 µg/mL (≈ 0.117 µM)
Staphylococcus aureus [38]
  MIC: 0.063 µg/mL (≈ 0.117 µM)
Staphylococcus aureus [39]
  MIC: 0.031 µg/mL (≈ 0.0576 µM)
Staphylococcus aureus [40]
  MIC: 0.125 µg/mL (≈ 0.232 µM)
Staphylococcus aureus [41]
  MIC: 0.125 µg/mL (≈ 0.232 µM)
Staphylococcus aureus [42]
  MIC50: 0.063 µg/mL (≈ 0.117 µM)
  MIC90: 0.125 µg/mL (≈ 0.232 µM)
Staphylococcus aureus [43]
  MIC: 0.25 µg/mL (≈ 0.464 µM)
Staphylococcus aureus [44]
  MIC: 0.063 µg/mL (≈ 0.117 µM)
Staphylococcus aureus [45]
  MIC: 0.031 µg/mL (≈ 0.0576 µM)
Staphylococcus aureus [46]
  MIC: 0.125 µg/mL (≈ 0.232 µM)
